# Measurements taken from publication PMC5608556, “Photo-affinity labelling and biochemical analyses identify the target of trypanocidal simplified natural product analogues” (PLoS Neglected Tropical Diseases, 2017).
# How the values were obtained:
# [1] = target: T1, FoF1-ATP synthase F1 α-subunit (GFP-PTP tagged) (Trypanosoma brucei brucei, UniProt Q9GS23); experiment: In vivo photo-affinity labelling of GFP-PTP-tagged F1 α-subunit, Cy5.5 detection; type: binding; details: 50 μM, in vivo pulse-chase, UV 365 nm
# T1 construct: expressed in transfected cells; host or cells: procyclic-form T. brucei strain 29-13, stably transfected with MfeI-linearised pC-F1α-GFP-PTP (recombination into the endogenous gene)
# Description: (§1) Fig 7 B-THP-Ts bind to C-terminal GFP-PTP tagged F1 α- and β- subunits. (A) Stably transfected PF T. brucei cells endogenously-expressing F1 α-GFP-PTP or F1 β-GFP-PTP were loaded with MitoTracker Red CMXros (red) and DAPI (blue) and imaged microscopically to determine localisation of GFP-PTP-tagged protein. […] (B) Following in vivo photo-affinity labelling with 50 μM compound 3 or compound 1 (negative control), GFP-PTP-tagged F1 α- and β-subunits were affinity purified and Cy5.5 clicked on. Proteins were separated by SDS-PAGE and a western blot was performed with mouse anti-GFP / anti-mouse-DyLight 800. […]
# (§2) Pulse-chase in vivo photo-affinity labelling with bi-functional compound 3 (and lead compound 1 as negative control) was performed on cells from both cell lines expressing GFP-PTP-tagged F1 α- or β-subunits. Tagged subunits were immobilised on IgG-sepharose beads, purified, and Cy5.5 fluorescent reporter clicked on, and proteins were detected by western blotting (Fig 7B). […] In trypanosomatids (but not in other organisms) the native α-subunit is expressed as a 63 KDa protein which is then cleaved by an unknown protease to 20 KDa N-terminal and 43 KDa C-terminal domains, both of which remain associated with the FoF1-ATP synthase complex. […]
# [2] = target: T2, FoF1-ATP synthase F1 β-subunit (GFP-PTP tagged) (Trypanosoma brucei brucei, UniProt Q9GPE9); experiment: In vivo photo-affinity labelling of GFP-PTP-tagged F1 β-subunit, Cy5.5 detection; type: binding; details: 50 μM, in vivo pulse-chase, UV 365 nm
# T2 construct: The endogenous expression produces tagged protein at physiological levels, allowing it to be trafficked and form complexes in the same way as untagged endogenously expressed protein; expressed in transfected cells; host or cells: procyclic-form T. brucei strain 29-13, stably transfected with BsmI-linearised pC-F1β-GFP-PTP (recombination into the endogenous gene)
# Description: as §1, §2
# T2 sequence (Q9GPE9 22-519): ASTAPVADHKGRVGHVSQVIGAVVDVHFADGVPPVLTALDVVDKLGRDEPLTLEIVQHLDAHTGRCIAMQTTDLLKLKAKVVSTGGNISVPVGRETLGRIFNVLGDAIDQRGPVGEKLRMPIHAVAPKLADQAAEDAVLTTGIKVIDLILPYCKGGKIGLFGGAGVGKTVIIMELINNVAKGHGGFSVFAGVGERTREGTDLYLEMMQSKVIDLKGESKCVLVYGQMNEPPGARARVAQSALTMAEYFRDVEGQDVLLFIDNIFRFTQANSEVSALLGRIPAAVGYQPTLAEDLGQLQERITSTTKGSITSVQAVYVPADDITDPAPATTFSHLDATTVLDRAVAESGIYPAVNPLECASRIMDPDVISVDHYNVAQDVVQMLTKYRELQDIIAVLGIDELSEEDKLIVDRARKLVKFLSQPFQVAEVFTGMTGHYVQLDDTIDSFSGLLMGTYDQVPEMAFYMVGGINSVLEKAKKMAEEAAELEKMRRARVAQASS
# T1 sequence (Q9GS23 160-584): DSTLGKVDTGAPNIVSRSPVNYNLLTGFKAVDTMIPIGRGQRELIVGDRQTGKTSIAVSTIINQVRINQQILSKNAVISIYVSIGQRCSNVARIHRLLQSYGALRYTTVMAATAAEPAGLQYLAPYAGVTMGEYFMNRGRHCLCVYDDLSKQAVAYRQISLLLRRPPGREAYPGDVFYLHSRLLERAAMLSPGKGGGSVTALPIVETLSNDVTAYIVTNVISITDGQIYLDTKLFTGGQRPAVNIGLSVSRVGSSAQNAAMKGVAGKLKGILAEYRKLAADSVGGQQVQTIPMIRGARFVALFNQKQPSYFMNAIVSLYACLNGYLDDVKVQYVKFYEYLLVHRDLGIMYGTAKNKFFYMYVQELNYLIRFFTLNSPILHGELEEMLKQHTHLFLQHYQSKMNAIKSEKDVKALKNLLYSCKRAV
structure (smiles),measurement,setting,value
C#CCNC(=O)CCC[C@H]1CC2(C[C@@H](Cn3cc([C@@H]4CCC[C@H](CCCCOCc5ccccc5)O4)nn3)O1)N=N2 [Compound 3],UV-conjugation (Cy5.5 labelling at 700 nm) to F1 α-GFP-PTP,[1],can UV-conjugate
same,UV-conjugation (Cy5.5 labelling at 700 nm) to F1 β-GFP-PTP,[2],can UV-conjugate
